Results on 39 compounds are retold here after US12336981B2, “Compounds and compositions for the inhibition of NAMPT” (Valo Health, Inc., priority 2010, dated 2025).

pIC50: −log10 of the molar value. Where two headings read alike, the source gives them in different places.

One may read the pIC50 as the IC50 on a negative log10 scale, so that one unit is a factor of ten.

Experiment [1] has as its target T1, NAMPT (Homo sapiens, UniProt P43490).
T1 construct: His tag; host or cells: E. coli
Kind of experiment: Biochemical inhibition assay: NAMPT enzymatic reaction, NMN quantified by mass spectrometry. The settings on record: read-out: Biochem IC50. Summed up:
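Inhibition of E. coli-expressed His-tagged human NAMPT, measured as NMN formation by mass spectrometry after a 30 min room-temperature reaction containing 1 μM NAM, 100 μM PRPP and 2.5 mM ATP.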

For experiment [2], the system named is A2780 cells. Kind of experiment: In-vitro cell proliferation assay (SRB), A2780 cells. The following applies: A2780 cells, 72 hours, read-out: A2780 IC50. The format is cell-based. Summed up:
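Growth inhibition was derived from background-corrected SRB absorbance (570 nm), measured on cells fixed in 6% TCA after three days of compound treatment under 5% CO2 at 37° C.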

The mark [3] stands for this setting: Homo sapiens, A2780, 72 h, SRB assay.

T1 sequence (P43490 whole entry): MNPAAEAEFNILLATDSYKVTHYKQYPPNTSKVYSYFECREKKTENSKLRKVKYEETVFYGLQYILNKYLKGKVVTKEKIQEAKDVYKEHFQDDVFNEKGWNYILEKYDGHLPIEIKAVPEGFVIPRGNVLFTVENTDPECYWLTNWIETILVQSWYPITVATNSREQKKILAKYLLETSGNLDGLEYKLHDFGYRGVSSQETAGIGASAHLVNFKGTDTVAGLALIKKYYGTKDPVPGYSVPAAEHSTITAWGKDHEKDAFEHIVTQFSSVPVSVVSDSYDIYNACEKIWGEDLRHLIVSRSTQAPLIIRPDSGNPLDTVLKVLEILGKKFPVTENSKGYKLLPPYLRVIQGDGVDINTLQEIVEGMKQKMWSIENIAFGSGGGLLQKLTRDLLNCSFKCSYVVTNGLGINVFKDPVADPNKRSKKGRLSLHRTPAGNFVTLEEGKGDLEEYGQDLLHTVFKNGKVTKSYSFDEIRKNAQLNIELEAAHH

Consider `O=C(NCc1ccc(S(=O)(=O)c2ccc(F)c(OCC(F)(F)F)c2)cc1)c1cc2ccncc2s1`, for which the pIC50 was 8.48 in experiment [1] (NAMPT enzymatic assay) and 7.93 in experiment [2] (Homo sapiens, A2780, 72 h, SRB).

In the case of `Cc1ccc(Cl)cc1S(=O)(=O)c1ccc(CNC(=O)c2cnc3nccn3c2)cc1`, the pIC50 in experiment [1] (NAMPT enzymatic reaction) was 8.51; in experiment [2] (Homo sapiens, A2780, 72 h, SRB), 8.37.

`O=C(NCc1ccc(S(=O)(=O)c2ccc(CO)cc2)cc1)c1ccc2nccn2c1`: the pIC50 in experiment [1] (NAMPT enzymatic assay) is 7.85; in experiment [2] (Homo sapiens, A2780, 72 h, SRB) it was 7.89.

For the compound `CCOc1ccc(S(=O)(=O)c2ccc(CNC(=O)c3cnc4[nH]ncc4c3)cc2)cc1F`, the negative-log IC50 (pIC50) is 8.02 in experiment [1] (NAMPT enzymatic reaction) and 8.28 in experiment [2] (Homo sapiens, A2780, 72 h, SRB).

As to `COc1cccc(S(=O)(=O)c2ccc(CNC(=O)c3ccc4nccn4c3)cc2)c1` [N-({4-[(3-methoxybenzene)sulfonyl]phenyl}methyl)imidazo[1,2-a]pyridine-6-carboxamide], the negative-log IC50 (pIC50) in experiment [1] (NAMPT enzymatic reaction) was 8.30; in experiment [2] (Homo sapiens, A2780, 72 h, SRB), 8.61.

As for `O=C(NCc1ccc(S(=O)(=O)c2ccc(-n3cccn3)cc2)cc1)c1cc2ccncc2o1`, the pIC50 in experiment [1] (NAMPT enzymatic assay) is 8.39; in experiment [2] (Homo sapiens, A2780, 72 h, SRB), 8.14.

Turning to `Cc1cc(C)cc(S(=O)(=O)c2ccc(CNC(=O)c3cc4ccncc4s3)cc2)c1` [N-({4-[(3,5-dimethylbenzene)sulfonyl]phenyl}methyl)thieno[2,3-c]pyridine-2-carboxamide], the negative-log IC50 (pIC50) in experiment [1] (NAMPT enzymatic reaction) is 8.30; in experiment [2] (setting [3]) it was 8.74.

For the compound `O=C(NCc1ccc(S(=O)(=O)c2cccc(F)c2)cc1)c1cc2ccncc2s1` [N-({4-[(3-fluorobenzene)sulfonyl]phenyl}methyl)thieno[2,3-c]pyridine-2-carboxamide], the results for the pIC50 in experiment [1] (NAMPT enzymatic reaction) and in experiment [2] (setting [3]) were 8.52 and 8.48, respectively.

For `O=C(NCc1ccc(S(=O)(=O)c2ccc(C(F)(F)F)cc2C(F)(F)F)cc1)c1cnc2[nH]ncc2c1` [N-[(4-{[2,4-bis(trifluoromethyl)benzene]sulfonyl}phenyl)methyl]-1H-pyrazolo[3,4-b]pyridine-5-carboxamide], the pIC50 in experiment [1] (NAMPT enzymatic assay) was 7.09; in experiment [2] (Homo sapiens, A2780, 72 h, SRB) it was 7.25.

Regarding `O=C(NCc1ccc(S(=O)(=O)c2cccc(OCC(F)(F)F)c2)cc1)c1ccc2nccn2c1`, the pIC50 is 7.82 in experiment [1] (NAMPT enzymatic assay) and 8.23 in experiment [2] (Homo sapiens, A2780, 72 h, SRB).

In the case of `Cn1ncc2c(S(=O)(=O)c3ccc(CNC(=O)c4cc5ccncc5s4)cc3)cccc21` [N-{[4-(1-methyl-1H-indazole-4-sulfonyl)phenyl]methyl}thieno[2,3-c]pyridine-2-carboxamide], the pIC50 in experiment [1] (NAMPT enzymatic assay) was 8.96; in experiment [2] (Homo sapiens, A2780, 72 h, SRB), 9.10.

Turning to `CCOCc1ccccc1S(=O)(=O)c1ccc(CNC(=O)c2cnc3nccn3c2)cc1`, the pIC50 in experiment [1] (NAMPT enzymatic assay) was 8.43; in experiment [2] (Homo sapiens, A2780, 72 h, SRB), 7.40.

Consider `CCCCOc1cc(F)ccc1S(=O)(=O)c1ccc(CNC(=O)c2ccc3nccn3c2)cc1`, for which the pIC50 is 7.29 in experiment [1] (NAMPT enzymatic reaction) and 8.21 in experiment [2] (Homo sapiens, A2780, 72 h, SRB).

For `CCN(CC)C(=O)c1cc(F)cc(S(=O)(=O)c2ccc(CNC(=O)c3cc4ccncc4o3)cc2)c1`, the pIC50 in experiment [1] (NAMPT enzymatic assay) is 7.99; in experiment [2] (Homo sapiens, A2780, 72 h, SRB), 8.42.

`CCCOc1ccc(S(=O)(=O)c2ccc(CNC(=O)c3ccc4nccn4c3)cc2)cc1Cl`: the pIC50 in experiment [1] (NAMPT enzymatic reaction) is 8.19; in experiment [2] (Homo sapiens, A2780, 72 h, SRB), 8.22.

As to `COc1ccc(C(C)=O)cc1S(=O)(=O)c1ccc(CNC(=O)c2ccc3nccn3c2)cc1` [N-({4-[(5-acetyl-2-methoxybenzene)sulfonyl]phenyl}methyl)imidazo[1,2-a]pyridine-6-carboxamide], the pIC50 was 7.42 in experiment [1] (NAMPT enzymatic reaction) and 7.90 in experiment [2] (Homo sapiens, A2780, 72 h, SRB).

In the case of `Cc1ccc(S(=O)(=O)c2ccc(CNC(=O)c3cnc4nccn4c3)cc2)cc1F`, the pIC50 in experiment [1] (NAMPT enzymatic reaction) is 8.64; in experiment [2] (Homo sapiens, A2780, 72 h, SRB), 8.20.

Regarding `Cc1c(Cl)cccc1S(=O)(=O)c1ccc(CNC(=O)c2cc3cnccc3[nH]2)cc1`, the pIC50 was 7.20 in experiment [1] (NAMPT enzymatic reaction) and 7.92 in experiment [2] (Homo sapiens, A2780, 72 h, SRB).

On to `O=C(NCc1ccc(S(=O)(=O)C2CCCCC2)cc1)c1cc2cnccc2[nH]1` [N-{[4-(cyclohexanesulfonyl)phenyl]methyl}-1H-pyrrolo[3,2-c]pyridine-2-carboxamide], for which the pIC50 is 8.30 in experiment [1] (NAMPT enzymatic assay) and 7.75 in experiment [2] (Homo sapiens, A2780, 72 h, SRB).

Turning to `O=C(NCc1ccc(S(=O)(=O)c2cccc(-c3ccccc3)c2)cc1)c1ccc2ncsc2c1` [N-({4-[(3-phenylbenzene)sulfonyl]phenyl}methyl)-1,3-benzothiazole-6-carboxamide], the pIC50 is 7.73 in experiment [1] (NAMPT enzymatic reaction) and 5.00 to 6.00 in experiment [2] (Homo sapiens, A2780, 72 h, SRB).

Consider `CCc1ccc(S(=O)(=O)c2ccc(CNC(=O)c3cc4ccncc4o3)cc2)cc1` [N-({4-[(4-ethylbenzene)sulfonyl]phenyl}methyl)furo[2,3-c]pyridine-2-carboxamide], for which the pIC50 in experiment [1] (NAMPT enzymatic reaction) is 8.30; in experiment [2] (Homo sapiens, A2780, 72 h, SRB), 8.15.

As for `O=C(NCc1ccc(S(=O)(=O)c2ccc(OCCN3CCCC3)cc2)cc1)c1cc2cnccc2[nH]1`, the pIC50 in experiment [1] (NAMPT enzymatic assay) is 8.52; in experiment [2] (SRB), 8.64.

On to `O=C(NCc1ccc(S(=O)(=O)c2cccc3c2OCC3)cc1)c1cc2cnccc2[nH]1` [N-{[4-(2,3-dihydro-1-benzofuran-7-sulfonyl)phenyl]methyl}-1H-pyrrolo[3,2-c]pyridine-2-carboxamide], for which the pIC50 in experiment [1] (NAMPT enzymatic assay) is 7.85; in experiment [2] (Homo sapiens, A2780, 72 h, SRB) it was 8.42.

With `COc1cc(C)cc(S(=O)(=O)c2ccc(CNC(=O)c3cnc4nccn4c3)cc2)c1`, the pIC50 was 8.80 in experiment [1] (NAMPT enzymatic reaction) and 8.89 in experiment [2] (Homo sapiens, A2780, 72 h, SRB).

For `O=C(NCc1ccc(S(=O)(=O)c2cccc3c2Oc2ccccc2S3)cc1)c1cc2cnccc2[nH]1` [N-{[4-(phenoxathiine-4-sulfonyl)phenyl]methyl}-1H-pyrrolo[3,2-c]pyridine-2-carboxamide], the figures for the pIC50 in experiment [1] (NAMPT enzymatic reaction) and in experiment [2] (setting [3]) were 8.30 and 9.05, respectively.

In the case of `Cc1ccc(F)cc1S(=O)(=O)c1ccc(CNC(=O)c2cc3ccncc3s2)cc1` [N-({4-[(5-fluoro-2-methylbenzene)sulfonyl]phenyl}methyl)thieno[2,3-c]pyridine-2-carboxamide], the negative-log IC50 (pIC50) in experiment [1] (NAMPT enzymatic reaction) is 8.52; in experiment [2] (setting [3]), 8.03.

On to `Cc1ccncc1S(=O)(=O)c1ccc(CNC(=O)c2cnc3nccn3c2)cc1` [N-{[4-(4-methylpyridine-3-sulfonyl)phenyl]methyl}imidazo[1,2-a]pyrimidine-6-carboxamide], for which the pIC50 in experiment [1] (NAMPT enzymatic assay) was 7.72; in experiment [2] (Homo sapiens, A2780, 72 h, SRB), 6.00 to 7.00.

On to `O=C(NCc1ccc(S(=O)(=O)Cc2ccccc2)cc1)c1cc2cnccc2[nH]1` [N-{[4-(phenylmethane)sulfonylphenyl]methyl}-1H-pyrrolo[3,2-c]pyridine-2-carboxamide], for which the pIC50 is 7.54 in experiment [1] (NAMPT enzymatic reaction) and 6.52 in experiment [2] (setting [3]).

As to `O=C(NCc1ccc(S(=O)(=O)c2ccc(C(F)(F)F)c(F)c2)cc1)c1cnc2nccn2c1`, the pIC50 in experiment [1] (NAMPT enzymatic assay) is 8.39; in experiment [2] (Homo sapiens, A2780, 72 h, SRB) it was 8.16.

For the compound `CCOCc1ccc(S(=O)(=O)c2ccc(CNC(=O)c3cnc4[nH]ncc4c3)cc2)cc1` [N-[(4-{[4-(ethoxymethyl)benzene]sulfonyl}phenyl)methyl]-1H-pyrazolo[3,4-b]pyridine-5-carboxamide], the pIC50 was 7.58 in experiment [1] (NAMPT enzymatic assay) and 7.89 in experiment [2] (Homo sapiens, A2780, 72 h, SRB).

Turning to `O=C(NCc1ccc(S(=O)(=O)c2ccc(C(F)(F)F)cn2)cc1)c1cc2ccncc2o1` [N-({4-[5-(trifluoromethyl)pyridine-2-sulfonyl]phenyl}methyl)furo[2,3-c]pyridine-2-carboxamide], the pIC50 in experiment [1] (NAMPT enzymatic assay) was 7.43; in experiment [2] (Homo sapiens, A2780, 72 h, SRB) it was 6.00 to 7.00.

As for `N#Cc1cccc(S(=O)(=O)c2ccc(CNC(=O)c3cnc4[nH]ncc4c3)cc2)c1` [N-({4-[(3-cyanobenzene)sulfonyl]phenyl}methyl)-1H-pyrazolo[3,4-b]pyridine-5-carboxamide], the pIC50 in experiment [1] (NAMPT enzymatic reaction) was 7.73; in experiment [2] (Homo sapiens, A2780, 72 h, SRB) it was 8.02.

Regarding `O=C(NCc1ccc(S(=O)(=O)c2ccccc2)cc1)c1cc(-c2cccnc2)[nH]n1` [N-{[4-(benzenesulfonyl)phenyl]methyl}-5-(pyridin-3-yl)-1H-pyrazole-3-carboxamide], the pIC50 in experiment [1] (NAMPT enzymatic reaction) is 7.64; in experiment [2] (setting [3]), 4.93.

For the compound `CCOc1cccc(F)c1S(=O)(=O)c1ccc(CNC(=O)c2cc3ccncc3o2)cc1` [N-({4-[(2-ethoxy-6-fluorobenzene)sulfonyl]phenyl}methyl)furo[2,3-c]pyridine-2-carboxamide], the pIC50 is 7.77 in experiment [1] (NAMPT enzymatic reaction) and 7.55 in experiment [2] (Homo sapiens, A2780, 72 h, SRB).

Regarding `COc1cc(F)c(F)cc1S(=O)(=O)c1ccc(CNC(=O)c2cc3cnccc3[nH]2)cc1` [N-({4-[(4,5-difluoro-2-methoxybenzene)sulfonyl]phenyl}methyl)-1H-pyrrolo[3,2-c]pyridine-2-carboxamide], the negative-log IC50 (pIC50) is 7.85 in experiment [1] (NAMPT enzymatic reaction) and 8.22 in experiment [2] (setting [3]).

Consider `O=C(NCc1ccc(S(=O)(=O)c2cccc(-c3ccc(F)c(F)c3)n2)cc1)c1cc2ccncc2o1` [N-({4-[6-(3,4-difluorophenyl)pyridine-2-sulfonyl]phenyl}methyl)furo[2,3-c]pyridine-2-carboxamide], for which the pIC50 in experiment [1] (NAMPT enzymatic assay) was 8.30; in experiment [2] (Homo sapiens, A2780, 72 h, SRB), 7.37.

As for `CC(=O)c1cccc(S(=O)(=O)c2ccc(CNC(=O)c3ccc4nccn4c3)cc2)c1` [N-({4-[(3-acetylbenzene)sulfonyl]phenyl}methyl)imidazo[1,2-a]pyridine-6-carboxamide], the pIC50 was 7.90 in experiment [1] (NAMPT enzymatic reaction) and 8.20 in experiment [2] (Homo sapiens, A2780, 72 h, SRB).

With `O=C(NCc1ccc(S(=O)(=O)c2cnc(N3CCCC3)s2)cc1)c1cc2ccncc2s1` [N-({4-[2-(pyrrolidin-1-yl)-1,3-thiazole-5-sulfonyl]phenyl}methyl)thieno[2,3-c]pyridine-2-carboxamide], the pIC50 is 8.82 in experiment [1] (NAMPT enzymatic assay) and 9.15 in experiment [2] (Homo sapiens, A2780, 72 h, SRB).

`CCNC(=O)c1ccc(S(=O)(=O)c2ccc(CNC(=O)c3cc4cnccc4[nH]3)cc2)cc1`: the pIC50 in experiment [1] (NAMPT enzymatic assay) is 7.84; in experiment [2] (Homo sapiens, A2780, 72 h, SRB), 7.85.
